# According to US9150566B2, “2-(1,2,3-triazol-2-yl)benzamide and 3-(1,2,3-triazol-2-YL)picolinamide derivatives as orexin receptor antagonists” (ACTELION PHARMACEUTICALS LTD., priority 2011, dated 2015):
# Like-named read-outs stand apart in the source and are kept apart here.
# How the values were obtained:
# human orexin-1 receptor = human orexin-1 receptor (Homo sapiens (Human), UniProt O43613); assay: In vitro intracellular calcium measurements (FLIPR), antagonistic activity on orexin-1 receptor; type: cell-based; conditions: read-out: IC50 OX1
# Chain of human orexin-1 receptor (O43613 whole entry): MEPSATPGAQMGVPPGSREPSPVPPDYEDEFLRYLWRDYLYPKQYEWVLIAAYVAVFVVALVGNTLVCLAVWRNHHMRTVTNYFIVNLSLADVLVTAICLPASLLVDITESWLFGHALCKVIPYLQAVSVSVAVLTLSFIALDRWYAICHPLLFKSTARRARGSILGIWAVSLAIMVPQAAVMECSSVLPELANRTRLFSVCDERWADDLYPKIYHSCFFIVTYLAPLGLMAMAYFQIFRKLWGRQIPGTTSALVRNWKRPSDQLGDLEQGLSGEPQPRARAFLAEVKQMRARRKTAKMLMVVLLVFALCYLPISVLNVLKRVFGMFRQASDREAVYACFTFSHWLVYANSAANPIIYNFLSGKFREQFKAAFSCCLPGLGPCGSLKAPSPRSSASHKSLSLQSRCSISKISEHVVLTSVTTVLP
# Experimental: (§1) In Vitro Assay: Intracellular Calcium Measurements:
# (§2) Chinese hamster ovary (CHO) cells expressing the human orexin-1 receptor and the human orexin-2 receptor, respectively, are grown in culture medium (Ham F-12 with L-Glutamine) containing 300 μg/mL G418, 100 U/mL penicillin, 100 μg/mL streptomycin and 10% heat inactivated fetal calf serum (FCS). The cells are seeded at 20′000 cells/well into 384-well black clear bottom sterile plates (Greiner). The seeded plates are incubated overnight at 37° C. in 5% CO2.
# (§3) Within the Fluorescent Imaging Plate Reader (FLIPR Tetra, Molecular Devices), antagonists are added to the plate in a volume of 10 μL/well, incubated for 120 min and finally 10 μL/well of agonist is added. Fluorescence is measured for each well at 1 second intervals, and the height of each fluorescence peak is compared to the height of the fluorescence peak induced by 3 nM orexin-A with vehicle in place of antagonist. […] Optimized conditions were achieved by adjustment of pipetting speed and cell splitting regime. The calculated IC50 values may fluctuate depending on the daily cellular assay performance. Fluctuations of this kind are known to those skilled in the art.
# human orexin-2 receptor = human orexin-2 receptor (Homo sapiens (Human), UniProt O43614); assay: In vitro intracellular calcium measurements (FLIPR), antagonistic activity on orexin-2 receptor; type: cell-based; conditions: read-out: IC50 OX2
# Chain of human orexin-2 receptor (O43614 whole entry): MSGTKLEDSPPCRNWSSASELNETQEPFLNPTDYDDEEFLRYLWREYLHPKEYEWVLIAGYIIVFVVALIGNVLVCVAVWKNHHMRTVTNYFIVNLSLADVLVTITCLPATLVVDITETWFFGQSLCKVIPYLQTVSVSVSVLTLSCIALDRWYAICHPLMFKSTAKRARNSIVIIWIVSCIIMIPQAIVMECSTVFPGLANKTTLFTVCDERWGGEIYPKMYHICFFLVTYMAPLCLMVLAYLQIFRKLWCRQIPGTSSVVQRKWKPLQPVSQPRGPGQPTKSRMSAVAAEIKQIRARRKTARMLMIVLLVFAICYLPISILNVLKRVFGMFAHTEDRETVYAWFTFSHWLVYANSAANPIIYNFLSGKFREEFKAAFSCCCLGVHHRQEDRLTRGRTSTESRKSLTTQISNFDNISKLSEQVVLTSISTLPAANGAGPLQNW
# Experimental: as §1, §2, §3
# [1] = CHO cells expressing human orexin-1 receptor, FLIPR, 3 nM orexin-A agonist, 120 min antagonist incubation, geometric mean if determined several times
# [2] = CHO cells expressing human orexin-2 receptor, FLIPR, 3 nM orexin-A agonist, 120 min antagonist incubation, geometric mean if determined several times
SMILES,IC50 (human orexin-1 receptor; [1]) [µM],IC50 (human orexin-2 receptor; [2]) [µM],IC50 (human orexin-1 receptor) [µM],IC50 (human orexin-2 receptor) [µM]
"Cc1ccc(-n2nccn2)c(C(=O)N2CCO[C@@H](C)[C@H]2Cc2cccc(-n3nccn3)c2)c1 (single isomer, unassigned) [Example 162, [(2S,3R)-2-Methyl-3-(3-[1,2,3]triazol-2-yl-benzyl)-morpholin-4-yl]-(5-methyl-2-[1,2,3]triazol-2-yl-phenyl)-methanone or [(2R,3R)-2-Methyl-3-(3-[1,2,3]triazol-2-yl-benzyl)-morpholin-4-yl]-(5-methyl-2-[1,2,3]triazol-2-yl-phenyl)-methanone]",0.024,2.53,–,–
"Cc1cccc(C(=O)N2CCO[C@@H](C)[C@H]2Cc2cccc(-n3nccn3)c2)c1-n1nccn1 (single isomer, unassigned) [Example 164, [(2S,3R)-2-Methyl-3-(3-[1,2,3]triazol-2-yl-benzyl)-morpholin-4-yl]-(3-methyl-2-[1,2,3]triazol-2-yl-phenyl)-methanone or [(2R,3R)-2-Methyl-3-(3-[1,2,3]triazol-2-yl-benzyl)-morpholin-4-yl]-(3-methyl-2-[1,2,3]triazol-2-yl-phenyl)-methanone]",0.029,4.04,–,–
"Cc1ccc(-n2nccn2)c(C(=O)N2CCO[C@H](C)[C@H]2Cc2cccc(-n3nccn3)c2)c1 (single isomer, unassigned) [Example 167, [(2R,3R)-2-Methyl-3-(3-[1,2,3]triazol-2-yl-benzyl)-morpholin-4-yl]-(5-methyl-2-[1,2,3]triazol-2-yl-phenyl)-methanone or [(2S,3R)-2-Methyl-3-(3-[1,2,3]triazol-2-yl-benzyl)-morpholin-4-yl]-(5-methyl-2-[1,2,3]triazol-2-yl-phenyl)-methanone]",0.019,2.38,–,–
"COc1ccc(C[C@@H]2COCCN2C(=O)c2ccccc2-n2nccn2)cc1-c1cccs1 [Example 10, [(R)-3-(4-Methoxy-3-thiophen-2-yl-benzyl)-morpholin-4-yl]-(2-[1,2,3]triazol-2-yl-phenyl)-methanone]",0.0005,0.031,–,–
"O=C(c1ccccc1-n1nccn1)N1CCOC[C@@H]1Cc1cccc(-n2nccn2)c1 [Example 13, [(S)-3-(3-[1,2,3]Triazol-2-yl-benzyl)-morpholin-4-yl]-(2-[1,2,3]triazol-2-yl-phenyl)-methanone]",0.966,4.44,–,–
"Cc1ccc(-n2nccn2)c(C(=O)N2CCOC[C@H]2Cc2cccc(-c3cccnc3)c2)c1 [Example 25, (5-Methyl-2-[1,2,3]triazol-2-yl-phenyl)-[(R)-3-(3-pyridin-3-yl-benzyl)-morpholin-4-yl]-methanone]",0.011,1.4,–,–
"Cc1ccc(-n2nccn2)c(C(=O)N2CCOC[C@H]2Cc2cccc(-n3cccc3)c2)c1 [Example 38, (5-Methyl-2-[1,2,3]triazol-2-yl-phenyl)-[(R)-3-(3-pyrrol-1-yl-benzyl)-morpholin-4-yl]-methanone]",0.001,0.131,–,–
"Cc1ccnc(-c2cccc(C[C@@H]3COCCN3C(=O)c3ccccc3-n3nccn3)c2)n1 [Example 40, {(R)-3-[3-(4-Methyl-pyrimidin-2-yl)-benzyl]-morpholin-4-yl}-(2-[1,2,3]triazol-2-yl-phenyl)-methanone]",0.034,0.762,–,–
"Cc1ccc(-n2nccn2)c(C(=O)N2CCOC[C@H]2Cc2cccc(-c3cnccn3)c2)c1 [Example 41, (5-Methyl-2-[1,2,3]triazol-2-yl-phenyl)-[(R)-3-(3-pyrazin-2-yl-benzyl)-morpholin-4-yl]-methanone]",0.008,1.04,–,–
"Cc1ccc(-n2nccn2)c(C(=O)N2CCOC[C@H]2Cc2cccc(-c3cccs3)c2)c1 [Example 45, (5-Methyl-2-[1,2,3]triazol-2-yl-phenyl)-[(R)-3-(3-thiophen-2-yl-benzyl)-morpholin-4-yl]-methanone]",0.0001,0.119,–,–
"O=C(c1ccccc1-n1nccn1)N1CCOC[C@H]1Cc1cccc(-c2cccs2)c1 [Example 46, [(R)-3-(3-Thiophen-2-yl-benzyl)-morpholin-4-yl]-(2-[1,2,3]triazol-2-yl-phenyl)-methanone]",0.0005,0.163,–,–
"O=C(c1ccccc1-n1nccn1)N1CCOC[C@H]1Cc1ccc(O)c(-c2ncccn2)c1 [Example 55, [(R)-3-(4-Hydroxy-3-pyrimidin-2-yl-benzyl)-morpholin-4-yl]-(2-[1,2,3]triazol-2-yl-phenyl)-methanone]",0.027,2.01,–,–
"COc1ccc(C[C@@H]2COCCN2C(=O)c2c(C)cccc2-n2nccn2)cc1-c1ncon1 [Example 63, [(R)-3-(4-Methoxy-3-[1,2,4]oxadiazol-3-yl-benzyl)-morpholin-4-yl]-(2-methyl-6-[1,2,3]triazol-2-yl-phenyl)-methanone]",0.009,0.049,–,–
"Cc1ccc(C(=O)N2[C@H](Cc3cccc(-n4nccn4)c3)COC[C@H]2C)c(-n2nccn2)c1 [Example 69, [(3R,5R)-3-Methyl-5-(3-[1,2,3]triazol-2-yl-benzyl)-morpholin-4-yl]-(4-methyl-2-[1,2,3]triazol-2-yl-phenyl)-methanone]",–,–,0.0009,0.314
"Cc1cccc(C(=O)N2[C@H](Cc3cccc(-n4nccn4)c3)COC[C@H]2C)c1-n1nccn1 [Example 70, [(3R,5R)-3-Methyl-5-(3-[1,2,3]triazol-2-yl-benzyl)-morpholin-4-yl]-(3-methyl-2-[1,2,3]triazol-2-yl-phenyl)-methanone]",0.005,2.61,–,–
"Cc1cccc(C(=O)N2[C@H](Cc3cccc(-n4nccn4)c3)COC[C@@H]2C)c1-n1nccn1 [Example 72, [(3S,5R)-3-Methyl-5-(3-[1,2,3]triazol-2-yl-benzyl)-morpholin-4-yl]-(3-methyl-2-[1,2,3]triazol-2-yl-phenyl)-methanone]",0.008,2.46,–,–
"Cc1cc(C(=O)N2[C@H](Cc3cccc(-n4nccn4)c3)COC[C@@H]2C)c(-n2nccn2)cc1C [Example 74, (4,5-Dimethyl-2-[1,2,3]triazol-2-yl-phenyl)-[(3S,5R)-3-methyl-5-(3-[1,2,3]triazol-2-yl-benzyl)-morpholin-4-yl]-methanone]",0.011,0.355,–,–
"Cc1cc(C(=O)N2CCOC[C@H]2Cc2ccc(C)c(-c3ncon3)c2)c(-n2nccn2)cc1C [Example 79, (4,5-Dimethyl-2-[1,2,3]triazol-2-yl-phenyl)-[(R)-3-(4-methyl-3-[1,2,4]oxadiazol-3-yl-benzyl)-morpholin-4-yl]-methanone]",0.0004,0.013,–,–
"O=C(c1cc(F)c(F)cc1-n1nccn1)N1CCOC[C@H]1Cc1cccc(-c2ncon2)c1 [Example 80, (4,5-Difluoro-2-[1,2,3]triazol-2-yl-phenyl)-[(R)-3-(3-[1,2,4]oxadiazol-3-yl-benzyl)-morpholin-4-yl]-methanone]",0.028,0.645,–,–
"O=C(c1cccc(F)c1-n1nccn1)N1CCOC[C@H]1Cc1cccc(-c2ncon2)c1 [Example 82, (3-Fluoro-2-[1,2,3]triazol-2-yl-phenyl)-[(R)-3-(3-[1,2,4]oxadiazol-3-yl-benzyl)-morpholin-4-yl]-methanone]",0.041,1.14,–,–
"O=C(c1ccc(Cl)cc1-n1nccn1)N1CCOC[C@H]1Cc1cccc(-c2ncon2)c1 [Example 86, (4-Chloro-2-[1,2,3]triazol-2-yl-phenyl)-[(R)-3-(3-[1,2,4]oxadiazol-3-yl-benzyl)-morpholin-4-yl]-methanone]",0.042,2.65,–,–
"O=C(c1cc(F)ccc1-n1nccn1)N1CCOC[C@H]1Cc1cccc(-c2ncon2)c1 [Example 88, (5-Fluoro-2-[1,2,3]triazol-2-yl-phenyl)-[(R)-3-(3-[1,2,4]oxadiazol-3-yl-benzyl)-morpholin-4-yl]-methanone]",0.03,0.893,–,–
"Cc1cc(C)c(-n2nccn2)c(C(=O)N2CCOC[C@H]2Cc2cccc(-c3ncon3)c2)c1 [Example 89, (3,5-Dimethyl-2-[1,2,3]triazol-2-yl-phenyl)-[(R)-3-(3-[1,2,4]oxadiazol-3-yl-benzyl)-morpholin-4-yl]-methanone]",0.007,0.42,–,–
"Cc1cc(-n2nccn2)c(C(=O)N2CCOC[C@H]2Cc2cccc(-n3nccn3)c2)cc1Cl [Example 103, (5-Chloro-4-methyl-2-[1,2,3]triazol-2-yl-phenyl)-[(R)-3-(3-[1,2,3]triazol-2-yl-benzyl)-morpholin-4-yl]-methanone]",0.0007,0.047,–,–
"Cc1cc(C(=O)N2CCOC[C@H]2Cc2cc(-n3nccn3)ccc2F)c(-n2nccn2)cc1C [Example 128, (4,5-Dimethyl-2-[1,2,3]triazol-2-yl-phenyl)-[(R)-3-(2-fluoro-5-[1,2,3]triazol-2-yl-benzyl)-morpholin-4-yl]-methanone]",0.0007,0.03,–,–
"O=C(c1c(F)cccc1-n1nccn1)N1CCOC[C@H]1Cc1cc(-n2nccn2)ccc1F [Example 136, [(R)-3-(2-Fluoro-5-[1,2,3]triazol-2-yl-benzyl)-morpholin-4-yl]-(2-fluoro-6-[1,2,3]triazol-2-yl-phenyl)-methanone]",0.037,0.574,–,–
